CC(=O)N1CCN(c2ccc(OC[C@@H]3CO[C@@](Cn4ccnc4)(c4ccc(Cl)cc4Cl)O3)cc2)CC1 (racemic)
solubility (mole fraction)
Settings | 293.2 K | 298.2 K | 303.2 K | 308.2 K | 313.2 K
in n-propanol | 0.0056 | 0.00703 | 0.00948 | 0.0128 | 0.0175
in water | 3.8e-07 | 4.25e-07 | 4.46e-07 | 4.8e-07 | 5.11e-07

Source: BigSolDB 2.1
